Data set [1] concerns Plasmodium falciparum. Description: NOVARTIS: Inhibition of Plasmodium falciparum W2 (drug-resistant) proliferation in erythrocyte-based infection assay. In kind it is functional, organism-based. Conditions: Plasmodium falciparum, W2; read-out: EC50.
Data set [2] deals with Plasmodium falciparum. Kind of data set: NOVARTIS: Inhibition of Plasmodium falciparum 3D7 (drug-susceptible) proliferation in erythrocyte-based infection assay. In kind it is functional, organism-based. The conditions noted are these: Plasmodium falciparum, 3D7.
A short description of data set [3]: NOVARTIS: Cytotoxicity against human hepatocellular carcinoma cell line (Huh7). In kind it is toxicity, cell-based, Huh-7. Conditions: Huh7 cells (hepatocellular carcinoma cell line).

Usually EC50 stands for the concentration giving half of the maximal effect. What is called CC50 is the concentration that lowers cell viability or growth by half. A lower CC50 goes with greater toxicity to the cells.

As to `C=C[C@H]1CN2CC[C@H]1C[C@@H]2[C@@H](OC(=O)c1ccc(OC)cc1)c1ccnc2ccccc12`, the values for the concentration giving a half-maximal response (EC50) in the data set on Plasmodium falciparum [1] and in the data set with Plasmodium falciparum [2] were 0.0185 µM and 0.243 µM, respectively. The same compound showed a CC50 in data set [3] of 2.61 µM.

With `COC1C(OC2OC(C)C(O)C(C)(O)C2OC)c2c(cc3c(c2O)C(=O)c2c(ccc4c2OC2OC4(C)C(OC4CC(C)([N+](=O)[O-])C(OC5OC(C)C(O)C(C)(O)C5OC)C(C)O4)C(N(C)C)C2O)C3=O)CC1(C)O` (centres undefined), the EC50 in the data set on Plasmodium falciparum [1] was determined as 0.0701 µM; in the data set on Plasmodium falciparum [2], 0.131 µM. In data set [3], this compound showed a 50% cytotoxic concentration (CC50) greater than 10 µM.

In the case of `CCNC(=O)C=Cc1ccc(C(C)(C)C)cc1`, the EC50 with Plasmodium falciparum [1] was found to be 0.719 µM; in the data set on Plasmodium falciparum [2], 0.616 µM. This compound had a CC50 in data set [3] greater than 100 µM.

For `O=C(NCCCCCCCCCCNC(=O)Nc1ccc(C2=NCCCN2)cc1)Nc1ccc(C2=NCCCN2)cc1`, the EC50 in the data set on Plasmodium falciparum [1] came to 0.0693 µM; in the data set with Plasmodium falciparum [2] it was 0.0542 µM. Besides, the half-maximal cytotoxic concentration (CC50) in data set [3] was greater than 10 µM.

For `Cc1nc2ccc(Cl)cc2c(O)c1I`, the half-maximal effective concentration (EC50) is 0.714 µM with Plasmodium falciparum [1] and 3.47 µM in the data set with Plasmodium falciparum [2]. This compound yielded a CC50 in data set [3] greater than 100 µM.

In the case of `O=C(CSc1nccn1C1CCCC1)Nc1cc(C(F)(F)F)ccc1Cl`, the half-maximal effective concentration (EC50) in the data set on Plasmodium falciparum [1] was determined as 0.714 µM; with Plasmodium falciparum [2] it was 0.545 µM. Also, the CC50 in data set [3] is greater than 100 µM.

Regarding `CC(=O)c1cccc(S(=O)(=O)NCCCNc2nc3cc(C)cc(C)c3cc2C#N)c1`, the EC50 in the data set with Plasmodium falciparum [1] amounted to 0.698 µM; in the data set with Plasmodium falciparum [2], 1.15 µM. Besides, the CC50 in data set [3] was greater than 100 µM.

Take `COc1cc(C=NNc2nc3ccccc3[nH]2)ccc1O`: the EC50 in the data set with Plasmodium falciparum [1] was 0.307 µM; with Plasmodium falciparum [2], 0.205 µM. Moreover, the midpoint of cytotoxicity in data set [3], the CC50, lay at 43.1 µM.

As to `COC(=O)C1=C(C)NC2=C(C(=O)CC(c3ccc(OC)c(OC)c3)C2)C1c1ccc([N+](=O)[O-])cc1` (centres undefined), the EC50 in the data set on Plasmodium falciparum [1] came out at 0.704 µM; with Plasmodium falciparum [2], 2.68 µM. In data set [3], the CC50 is greater than 100 µM.

Consider `COc1ccc(Nc2nc(NN=Cc3cccc(F)c3)nc(Nc3ccc([N+](=O)[O-])cc3)n2)cc1`, for which the EC50 in the data set with Plasmodium falciparum [1] is 0.704 µM; in the data set with Plasmodium falciparum [2], 0.662 µM. In addition, in data set [3], the 50% cytotoxic concentration (CC50) is greater than 100 µM.

Consider `CCCN1CCc2c(sc3nc(SCC(=O)OC)nc(N)c23)C1`, for which the half-maximal effective concentration (EC50) was 0.71 µM with Plasmodium falciparum [1] and 1.66 µM in the data set with Plasmodium falciparum [2]. The CC50 in data set [3] was greater than 100 µM.

For `CCN(CC)CCNC(=O)c1cc(-c2cc3ccccc3s2)cc(-n2cnnn2)c1`, the EC50 with Plasmodium falciparum [1] was found to be 0.151 µM; with Plasmodium falciparum [2], 0.0616 µM. The same compound showed a CC50 in data set [3] of 21.3 µM.

For the compound `COc1cc2c(N3CCOCC3)cc(O)c(CC(=O)Nc3ccccc3)c2cc1OC`, the EC50 in the data set on Plasmodium falciparum [1] amounted to 0.712 µM; in the data set with Plasmodium falciparum [2], 0.626 µM. In data set [3], this compound came in with a CC50 greater than 100 µM.

For the compound `COc1ccc(-c2cn3c([n+]2-c2ccccc2)SCC3)cc1`, the figures for the EC50 with Plasmodium falciparum [1] and in the data set with Plasmodium falciparum [2] were 0.709 µM and 0.582 µM, respectively. This compound also came in with a cytotoxic concentration (CC50) in data set [3] greater than 100 µM.

Consider `CCCCOc1ccc(C=CC(=O)NCc2ccco2)cc1`, for which the figures for the EC50 in the data set with Plasmodium falciparum [1] and in the data set on Plasmodium falciparum [2] were 0.717 µM and 1.07 µM, respectively. Besides, in data set [3], the cytotoxic concentration (CC50) is greater than 100 µM.

Take `COc1cccc(NC(=O)Cn2c(C)c(C(C)=O)c3ccccc32)c1`: the EC50 with Plasmodium falciparum [1] is 0.713 µM; in the data set with Plasmodium falciparum [2] it was 1.76 µM. The compound further came in with a CC50 in data set [3] greater than 100 µM.

On to `CN(C)CCCNC1=NC=NC2C=C(Cl)C=CC12` (centres undefined), for which the values for the concentration for a half-maximal effect (EC50) with Plasmodium falciparum [1] and with Plasmodium falciparum [2] were 0.713 µM and 0.29 µM, respectively. This compound registered a half-maximal cytotoxic concentration (CC50) in data set [3] greater than 100 µM.

For the compound `O=C(Nc1ccc(Cl)cc1)Nc1ccc(Br)cn1`, the EC50 in the data set on Plasmodium falciparum [1] is 0.712 µM; with Plasmodium falciparum [2], greater than 12.5 µM. In data set [3], this compound displayed a CC50 greater than 100 µM.

With `COc1ccc(Nc2nc(NN=Cc3cccc(Cl)c3)nc(Nc3ccc([N+](=O)[O-])cc3)n2)cc1`, the half-maximal effective concentration (EC50) was 0.717 µM in the data set with Plasmodium falciparum [1] and 0.603 µM in the data set on Plasmodium falciparum [2]. The cytotoxic concentration (CC50) in data set [3] is greater than 100 µM.

As for `CCCC(=O)N(CCCC(C)Nc1cc(OC)cc2cccnc12)Cc1ccc(F)cc1` (centres undefined), the results for the EC50 with Plasmodium falciparum [1] and in the data set on Plasmodium falciparum [2] were 0.0714 µM and 0.385 µM, respectively. Moreover, the CC50 in data set [3] is greater than 10 µM.

Consider `CCOC(=O)c1c(CNC)n(C)c2cc(Br)c(O)cc12`, for which the half-maximal effective concentration (EC50) in the data set with Plasmodium falciparum [1] is 0.691 µM; in the data set on Plasmodium falciparum [2], 0.458 µM. The same compound returned a 50% cytotoxic concentration (CC50) in data set [3] greater than 100 µM.

Take `Cc1ccc(F)cc1NC(=O)Cn1c2ccccc2c(=O)c2cc(Cl)ccc21`: the EC50 in the data set with Plasmodium falciparum [1] came out at 0.694 µM; in the data set on Plasmodium falciparum [2] it was 1.18 µM. This compound also displayed a CC50 in data set [3] greater than 100 µM.

As for `c1ccc(CNc2nc(Nc3ccccc3)nc3ccccc23)cc1`, the 50% effective concentration (EC50) in the data set with Plasmodium falciparum [1] turned out to be 0.0934 µM; in the data set with Plasmodium falciparum [2] it was 0.158 µM. Also, the CC50 in data set [3] is 13.5 µM.

Take `CCOC(=O)c1ccc(N2CCN(c3cc(C)ccc3C)CC2)c(NC(=O)Nc2ccc(Cl)cc2)c1`: the concentration giving a half-maximal response (EC50) in the data set on Plasmodium falciparum [1] is 0.691 µM; with Plasmodium falciparum [2], greater than 3.54 µM. Further, the CC50 in data set [3] was greater than 100 µM.

For `COc1ccc(CCNC(=S)Nc2ccccc2C)cc1OC`, the figures for the EC50 in the data set with Plasmodium falciparum [1] and in the data set with Plasmodium falciparum [2] were 0.698 µM and 1.09 µM, respectively. The same compound returned a CC50 in data set [3] greater than 100 µM.

`O=C(Cn1cc([N+](=O)[O-])nc1[N+](=O)[O-])N1CCN(c2ccc(F)cc2)CC1`: the half-maximal effective concentration (EC50) is 0.234 µM in the data set with Plasmodium falciparum [1] and 1.07 µM with Plasmodium falciparum [2]. In data set [3], this compound registered a 50% cytotoxic concentration (CC50) of 33.6 µM.

For the compound `COc1cccc(-c2ccc(O)c(CN(C)C3CCCCC3)c2)n1`, the values for the concentration for a half-maximal effect (EC50) in the data set with Plasmodium falciparum [1] and with Plasmodium falciparum [2] were 0.0903 µM and 1.15 µM, respectively. The compound also had a CC50 in data set [3] greater than 13 µM.

On to `Cc1nc(N2CCN(c3ccccn3)CC2)c2c(C)c(C(=O)Nc3c(F)cccc3F)sc2n1`, for which the EC50 in the data set with Plasmodium falciparum [1] turned out to be 0.694 µM; in the data set on Plasmodium falciparum [2] it was 3.14 µM. The compound further registered a CC50 in data set [3] greater than 100 µM.

As for `COc1ccc(N2C(=O)[C@@H]3C[C@H]2CN3C(=O)c2cccc(Cn3nc(C)cc3C)c2)cc1Cl`, the EC50 in the data set on Plasmodium falciparum [1] was 0.0267 µM; in the data set with Plasmodium falciparum [2] it was greater than 1.25 µM. In data set [3], this compound yielded a CC50 greater than 3.8 µM.

As to `CCOC(=O)C1=C(C)NC2=C(C(=O)C(C(=O)OCC)C(c3ccccc3OC)C2)C1c1cc(OC)c(OC)c(OC)c1` (centres undefined), the half-maximal effective concentration (EC50) was found to be 0.713 µM in the data set on Plasmodium falciparum [1] and 1.5 µM in the data set on Plasmodium falciparum [2]. In data set [3], this compound returned a CC50 greater than 100 µM.

`Cc1cccc(N2C(=O)C3C(C2=O)C2(c4ccccc4)C(=O)C3(c3ccccc3)C(c3ccccc3)=C2c2ccccc2)c1` (centres undefined): the EC50 in the data set with Plasmodium falciparum [1] is 0.7 µM; in the data set on Plasmodium falciparum [2] it was 1.64 µM. The CC50 in data set [3] is greater than 100 µM.

As to `CCOc1ccc(C(=O)C(CCC(C[N+]2(C)CCCCCC2)C(=O)c2ccc(OCC)cc2)C[N+]2(C)CCCCCC2)cc1` (centres undefined), the EC50 stood at 0.693 µM in the data set on Plasmodium falciparum [1] and 0.615 µM in the data set with Plasmodium falciparum [2]. For the same compound, the CC50 in data set [3] is greater than 100 µM.

In the case of `Cc1cc(C)[n+](C)n1CC(O)Cn1c2ccccc2c2ccccc21` (centres undefined), the concentration for a half-maximal effect (EC50) in the data set with Plasmodium falciparum [1] is 0.691 µM; with Plasmodium falciparum [2], 1.22 µM. This compound also registered a CC50 in data set [3] greater than 100 µM.

On to `CCCCOc1nc(-c2ccc(OC)cc2)n(C(=O)c2ccccc2OC)n1`, for which the EC50 amounted to 0.717 µM with Plasmodium falciparum [1] and 8.97 µM with Plasmodium falciparum [2]. The compound also displayed a 50% cytotoxic concentration (CC50) in data set [3] greater than 100 µM.

With `Fc1ccc(-c2cn3c([n+]2-c2ccccc2)SCC3)cc1`, the EC50 in the data set with Plasmodium falciparum [1] amounted to 0.713 µM; in the data set with Plasmodium falciparum [2] it was 1.09 µM. The compound further showed a cytotoxic concentration (CC50) in data set [3] greater than 100 µM.

Turning to `CC(=O)Nc1nc(C)c(-c2csc(Nc3ccc(C)cc3)n2)s1`, the figures for the EC50 in the data set on Plasmodium falciparum [1] and in the data set with Plasmodium falciparum [2] were 0.166 µM and 0.24 µM, respectively. The same compound showed a 50% cytotoxic concentration (CC50) in data set [3] of 23.6 µM.

For the compound `Cc1c(-c2ccccc2)c2ccccc2n1CCc1ccc(C)[n+](C)c1`, the half-maximal effective concentration (EC50) in the data set with Plasmodium falciparum [1] is 0.69 µM; in the data set with Plasmodium falciparum [2] it was 0.647 µM. Moreover, in data set [3], the 50% cytotoxic concentration (CC50) is greater than 100 µM.

`Cc1ccc(C[n+]2cc(-c3ccc(C)cc3)n3c2CCC3)cc1`: the EC50 was 0.24 µM in the data set on Plasmodium falciparum [1] and 0.538 µM in the data set on Plasmodium falciparum [2]. Half-maximal cytotoxicity in data set [3] (CC50) was put at 34.5 µM.

The values are drawn from ChEMBL document CHEMBL1156829 (Proc Natl Acad Sci U S A, 2008).
